# Test results published in PMC5218480 (PLoS ONE, 2017).
# Test system: MV-4-11 cells
# Experiment: Gene expression microarray analysis (Affymetrix PrimeView) and GSEA
# Assay type: cell-based, human
# Design: RFU PODN (11730768_x_at) / Fold change /veh PODN (11730768_x_at) / RFU LINC00158 (11744669_a_at) / Fold change /veh LINC00158 (11744669_a_at) / RFU DUSP10 (11751237_a_at) / Fold change /veh DUSP10 (11751237_a_at) / RFU ID3 (11757404_x_at) / Fold change /veh ID3 (11757404_x_at) / RFU PLEKHG5 (11737974_s_at) / Fold change /veh PLEKHG5 (11737974_s_at) / RFU LRRC4B (11730491_at) / Fold change /veh LRRC4B (11730491_at) / RFU GIMAP4 (11747438_a_at) / Fold change /veh GIMAP4 (11747438_a_at) / RFU KRT8 (11758183_x_at) / Fold change /veh KRT8 (11758183_x_at) / RFU CNN1 (11734310_a_at) / Fold change /veh CNN1 (11734310_a_at) / RFU VPS37D (11726825_at) / Fold change /veh VPS37D (11726825_at) / RFU C10orf10 (11716522_x_at) / Fold change /veh C10orf10 (11716522_x_at) / RFU KIR2DL2 /// KIR2DL4 /// KIR2DL5A /// KIR2DL5B /// KIR2DS1 /// KIR2DS2 /// KIR2DS3 /// KIR2DS4 /// KIR3DL3 /// KIR3DL3 /// KIR3DS1 (11738374_at) / Fold change /veh KIR2DL2 /// KIR2DL4 /// KIR2DL5A /// KIR2DL5B /// KIR2DS1 /// KIR2DS2 /// KIR2DS3 /// KIR2DS4 /// KIR3DL3 /// KIR3DL3 /// KIR3DS1 (11738374_at) / RFU C1QL1 (11718748_at) / Fold change /veh C1QL1 (11718748_at) / RFU TMPRSS4 (11747572_a_at) / Fold change /veh TMPRSS4 (11747572_a_at) / RFU HAMP (11756126_x_at) / Fold change /veh HAMP (11756126_x_at) / RFU RNFT2 (11725882_a_at) / Fold change /veh RNFT2 (11725882_a_at) / RFU NR4A2 (11747474_a_at) / Fold change /veh NR4A2 (11747474_a_at) / RFU ABCC12 (11746883_a_at) / Fold change /veh ABCC12 (11746883_a_at) / RFU TMEM136 (11760407_x_at) / Fold change /veh TMEM136 (11760407_x_at) / RFU CLDN22 /// WWC2 (11732394_at) / Fold change /veh CLDN22 /// WWC2 (11732394_at) / RFU HLA-DPB1 (11760878_x_at) / Fold change /veh HLA-DPB1 (11760878_x_at) / RFU SPINT1 (11716480_a_at) / Fold change /veh SPINT1 (11716480_a_at) / RFU GAP43 (11754022_s_at) / Fold change /veh GAP43 (11754022_s_at) / RFU A4GNT (11735810_at) / Fold change /veh A4GNT (11735810_at) / RFU PRB3 (11715151_x_at) / Fold change /veh PRB3 (11715151_x_at) / RFU TUBB4B (11761932_at) / Fold change /veh TUBB4B (11761932_at) / RFU CAPN14 (11732068_a_at) / Fold change /veh CAPN14 (11732068_a_at) / RFU TMCC2 (11721928_a_at) / Fold change /veh TMCC2 (11721928_a_at) / RFU IRGQ (11745062_a_at) / Fold change /veh IRGQ (11745062_a_at) / RFU FAM174B (11720279_a_at) / Fold change /veh FAM174B (11720279_a_at) / RFU TMPRSS4 (11748680_a_at) / Fold change /veh TMPRSS4 (11748680_a_at) / RFU FAM212B (11763350_a_at) / Fold change /veh FAM212B (11763350_a_at) / RFU PLEKHG5 (11743358_a_at) / Fold change /veh PLEKHG5 (11743358_a_at) / RFU ZSCAN30 (11745921_a_at) / Fold change /veh ZSCAN30 (11745921_a_at) / RFU CMKLR1 (11741424_a_at) / Fold change /veh CMKLR1 (11741424_a_at) / RFU LOC101060620 /// MAPK8IP1 (11723275_at) / Fold change /veh LOC101060620 /// MAPK8IP1 (11723275_at) / RFU SPTSSB (11747773_x_at) / Fold change /veh SPTSSB (11747773_x_at) / RFU PRSS12 (11739890_at) / Fold change /veh PRSS12 (11739890_at) / RFU BIN1 (11741810_x_at) / Fold change /veh BIN1 (11741810_x_at) / RFU WNT11 (11732464_a_at) / Fold change /veh WNT11 (11732464_a_at) / RFU C10orf10 (11716521_a_at) / Fold change /veh C10orf10 (11716521_a_at) / RFU C5orf56 (11738089_at) / Fold change /veh C5orf56 (11738089_at) / RFU CYB561 (11721691_x_at) / Fold change /veh CYB561 (11721691_x_at) / RFU ANKRD19P (11752326_a_at) / Fold change /veh ANKRD19P (11752326_a_at) / RFU OR2T12 /// OR2T33 /// OR2T8 (11738714_s_at) / Fold change /veh OR2T12 /// OR2T33 /// OR2T8 (11738714_s_at) / RFU VCAN (11748164_a_at) / Fold change /veh VCAN (11748164_a_at) / RFU JSRP1 (11732532_at) / Fold change /veh JSRP1 (11732532_at) / RFU KRTAP10-11 (11738290_x_at) / Fold change /veh KRTAP10-11 (11738290_x_at) / RFU MYO3A (11730013_a_at) / Fold change /veh MYO3A (11730013_a_at) / RFU EBF3 (11725865_a_at) / Fold change /veh EBF3 (11725865_a_at) / RFU CAMK2N1 (11719241_x_at) / Fold change /veh CAMK2N1 (11719241_x_at) / RFU C5orf56 (11738088_a_at) / Fold change /veh C5orf56 (11738088_a_at) / RFU OLFML3 (11715873_a_at) / Fold change /veh OLFML3 (11715873_a_at) / RFU LOC100653217 /// NTM (11731650_a_at) / Fold change /veh LOC100653217 /// NTM (11731650_a_at) / RFU MAPK11 (11762145_a_at) / Fold change /veh MAPK11 (11762145_a_at) / RFU FIZ1 (11724087_x_at) / Fold change /veh FIZ1 (11724087_x_at) / RFU OASL (11726364_x_at) / Fold change /veh OASL (11726364_x_at) / RFU SOX15 (11748057_x_at) / Fold change /veh SOX15 (11748057_x_at) / RFU CD79A (11719716_a_at) / Fold change /veh CD79A (11719716_a_at) / RFU HIST1H1D (11736915_at) / Fold change /veh HIST1H1D (11736915_at) / RFU CASKIN2 (11723855_a_at) / Fold change /veh CASKIN2 (11723855_a_at) / RFU LOC730098 (11760151_x_at) / Fold change /veh LOC730098 (11760151_x_at) / RFU OR4N2 (11742367_at) / Fold change /veh OR4N2 (11742367_at) / RFU PRRT2 (11749266_a_at) / Fold change /veh PRRT2 (11749266_a_at) / RFU SNX32 (11753110_a_at) / Fold change /veh SNX32 (11753110_a_at) / RFU CDHR5 (11726645_a_at) / Fold change /veh CDHR5 (11726645_a_at) / RFU RCAN1 (11760418_a_at) / Fold change /veh RCAN1 (11760418_a_at) / RFU FAM167A (11723789_a_at) / Fold change /veh FAM167A (11723789_a_at) / RFU FAM26E (11764081_at) / Fold change /veh FAM26E (11764081_at) / RFU ISYNA1 (11749810_s_at) / Fold change /veh ISYNA1 (11749810_s_at) / RFU ACY1 (11761880_at) / Fold change /veh ACY1 (11761880_at) / RFU 11764098_at / Fold change /veh 11764098_at / RFU SAMD14 (11745864_x_at) / Fold change /veh SAMD14 (11745864_x_at) / RFU NPB (11741838_a_at) / Fold change /veh NPB (11741838_a_at) / RFU TMPRSS6 (11731388_a_at) / Fold change /veh TMPRSS6 (11731388_a_at) / RFU KRTAP10-2 (11738614_at) / Fold change /veh KRTAP10-2 (11738614_at) / RFU ARHGAP8 /// PRR5-ARHGAP8 (11727945_x_at) / Fold change /veh ARHGAP8 /// PRR5-ARHGAP8 (11727945_x_at) / RFU KRTAP5-7 /// NADSYN1 (11734609_at) / Fold change /veh KRTAP5-7 /// NADSYN1 (11734609_at) / RFU RASL12 (11751679_a_at) / Fold change /veh RASL12 (11751679_a_at) / RFU CDKN2B (11736163_a_at) / Fold change /veh CDKN2B (11736163_a_at) / RFU PRF1 (11729649_at) / Fold change /veh PRF1 (11729649_at) / RFU, ZNF638 /// ZNF638-IT1 / Fold change vs veh, ZNF638 /// ZNF638-IT1 / RFU, PANK3 / Fold change vs veh, PANK3 / RFU, SH3YL1 / Fold change vs veh, SH3YL1 / RFU, ZEB2 / Fold change vs veh, ZEB2 / RFU, NRIP1 / Fold change vs veh, NRIP1 / RFU, PTTG1IP / Fold change vs veh, PTTG1IP / RFU, CAPN2 / Fold change vs veh, CAPN2 / RFU, MED14 / Fold change vs veh, MED14 / RFU, SNORA58 / Fold change vs veh, SNORA58 / RFU, C1orf63 / Fold change vs veh, C1orf63 / RFU, LRRFIP1 / Fold change vs veh, LRRFIP1 / RFU, NDUFAF7 / Fold change vs veh, NDUFAF7 / RFU, SLC12A2 / Fold change vs veh, SLC12A2 / RFU, IBTK / Fold change vs veh, IBTK / RFU, ESF1 / Fold change vs veh, ESF1 / Fold change vs veh, TMEM50B / RFU, TAOK1 / Fold change vs veh, TAOK1 / RFU, ACBD3 / Fold change vs veh, ACBD3 / RFU, TMA16 / Fold change vs veh, TMA16 / RFU, RWDD3 / Fold change vs veh, RWDD3 / RFU, BCAT1 / Fold change vs veh, BCAT1 / RFU, EDEM3 / Fold change vs veh, EDEM3 / RFU, TMEM33 / Fold change vs veh, TMEM33 / RFU, WDR75 / Fold change vs veh, WDR75 / RFU, AHCTF1 / Fold change vs veh, AHCTF1 / RFU, TFRC / Fold change vs veh, TFRC / RFU, ZDHHC17 / Fold change vs veh, ZDHHC17 / RFU, NOM1 / Fold change vs veh, NOM1 / RFU, ARL8B / Fold change vs veh, ARL8B / RFU, ZBTB11 / Fold change vs veh, ZBTB11 / RFU, TAMM41 / Fold change vs veh, TAMM41 / RFU, KIAA1704 /// LOC100996395 / Fold change vs veh, KIAA1704 /// LOC100996395 / RFU, ING1 / Fold change vs veh, ING1 / RFU, TRMT61B / Fold change vs veh, TRMT61B / RFU, FUBP3 / Fold change vs veh, FUBP3 / RFU, TP53 / Fold change vs veh, TP53 / RFU, TNKS2 / Fold change vs veh, TNKS2 / RFU, ZFP14 / Fold change vs veh, ZFP14 / RFU, ACTR2 / Fold change vs veh, ACTR2 / RFU, PPP3R1 / Fold change vs veh, PPP3R1 / RFU, PIK3R1 / Fold change vs veh, PIK3R1 / RFU, HNRNPA1 / Fold change vs veh, HNRNPA1 / RFU, RNF170 / Fold change vs veh, RNF170 / RFU, ZNF28 / Fold change vs veh, ZNF28 / RFU, RNGTT / Fold change vs veh, RNGTT / RFU, OGT / Fold change vs veh, OGT / RFU, BRD1 / Fold change vs veh, BRD1 / RFU, MARS / Fold change vs veh, MARS / RFU, ZNF655 / Fold change vs veh, ZNF655 / RFU, FAHD1 / Fold change vs veh, FAHD1 / RFU, BDP1 / Fold change vs veh, BDP1 / RFU, LRRCC1 / Fold change vs veh, LRRCC1 / RFU, ARID1A / Fold change vs veh, ARID1A / RFU, ZNF146 / Fold change vs veh, ZNF146 / RFU, ZNF330 / Fold change vs veh, ZNF330 / RFU, GPN3 / Fold change vs veh, GPN3 / RFU, C9orf123 / Fold change vs veh, C9orf123 / RFU, N4BP2L2 / Fold change vs veh, N4BP2L2 / RFU, ARFIP1 / Fold change vs veh, ARFIP1 / RFU, FAM179B / Fold change vs veh, FAM179B / RFU, BCL10 / Fold change vs veh, BCL10 / RFU, UHRF1BP1L / Fold change vs veh, UHRF1BP1L / RFU, BET1 / Fold change vs veh, BET1 / RFU, CNOT2 / Fold change vs veh, CNOT2 / RFU, ZNF268 / Fold change vs veh, ZNF268 / Fold change vs veh, ZNF507 / RFU, DGCR2 / Fold change vs veh, DGCR2 / RFU, WDSUB1 / Fold change vs veh, WDSUB1 / Fold change vs veh, HSP90B1 /// MIR3652 / RFU, ADSS / Fold change vs veh, ADSS / RFU, GK / Fold change vs veh, GK / RFU, ZNF148 / Fold change vs veh, ZNF148 / RFU, TAF9 / Fold change vs veh, TAF9 / RFU, SLC1A5 / Fold change vs veh, SLC1A5 / RFU, SLMO2 / Fold change vs veh, SLMO2 / RFU, ABCC4 / Fold change vs veh, ABCC4 / RFU, LOC101060439 /// RAP1B / Fold change vs veh, LOC101060439 /// RAP1B / RFU, RFX7 / Fold change vs veh, RFX7 / RFU, GTPBP10 / Fold change vs veh, GTPBP10 / RFU, CNEP1R1 / Fold change vs veh, CNEP1R1 / RFU, BIVM-ERCC5 /// ERCC5 / Fold change vs veh, BIVM-ERCC5 /// ERCC5 / RFU, ILF3 / Fold change vs veh, ILF3 / RFU 11762660_at / Fold change /veh 11762660_at / RFU VCAN (11757783_s_at) / Fold change /veh VCAN (11757783_s_at) / RFU DDX43 (11728927_at) / Fold change /veh DDX43 (11728927_at) / RFU KRT8 (11758188_x_at) / Fold change /veh KRT8 (11758188_x_at) / RFU NKD1 (11759106_at) / Fold change /veh NKD1 (11759106_at) / RFU SRD5A1 (11742802_a_at) / Fold change /veh SRD5A1 (11742802_a_at) / RFU TPSAB1 /// TPSB2 (11721975_s_at) / Fold change /veh TPSAB1 /// TPSB2 (11721975_s_at) / RFU GSTM3 (11746129_a_at) / Fold change /veh GSTM3 (11746129_a_at) / RFU IL23R (11737362_x_at) / Fold change /veh IL23R (11737362_x_at) / RFU TMEM51 (11727254_a_at) / Fold change /veh TMEM51 (11727254_a_at) / RFU PIWIL2 (11732686_x_at) / Fold change /veh PIWIL2 (11732686_x_at) / RFU ORM1 (11744905_x_at) / Fold change /veh ORM1 (11744905_x_at) / RFU CCDC152 (11743942_at) / Fold change /veh CCDC152 (11743942_at) / RFU ECM1 (11717891_a_at) / Fold change /veh ECM1 (11717891_a_at) / RFU IL23R (11748794_a_at) / Fold change /veh IL23R (11748794_a_at) / RFU TNFAIP8L3 (11732012_x_at) / Fold change /veh TNFAIP8L3 (11732012_x_at) / RFU MBOAT4 (11741988_at) / Fold change /veh MBOAT4 (11741988_at) / RFU 11764193_at / Fold change /veh 11764193_at / RFU TMEM53 (11763286_at) / Fold change /veh TMEM53 (11763286_at) / RFU MAGEB2 (11727129_at) / Fold change /veh MAGEB2 (11727129_at) / RFU TMEM200A (11744735_a_at) / Fold change /veh TMEM200A (11744735_a_at) / RFU CCDC152 (11751479_a_at) / Fold change /veh CCDC152 (11751479_a_at) / RFU FAM211A (11726209_a_at) / Fold change /veh FAM211A (11726209_a_at) / RFU RGS16 (11746705_a_at) / Fold change /veh RGS16 (11746705_a_at) / RFU VCAN (11755009_s_at) / Fold change /veh VCAN (11755009_s_at) / RFU RHOB (11743442_s_at) / Fold change /veh RHOB (11743442_s_at) / RFU RGS16 (11720943_a_at) / Fold change /veh RGS16 (11720943_a_at) / RFU RGS16 (11720944_at) / Fold change /veh RGS16 (11720944_at) / RFU, VPS4B / Fold change vs veh, VPS4B / RFU, CREB1 / Fold change vs veh, CREB1 / RFU, DNAJC13 / Fold change vs veh, DNAJC13 / RFU, GNAQ / Fold change vs veh, GNAQ / RFU, CDK5R1 / Fold change vs veh, CDK5R1 / RFU, ZRANB3 / Fold change vs veh, ZRANB3 / RFU, CUL4A / Fold change vs veh, CUL4A / RFU, CCNY / Fold change vs veh, CCNY / RFU, UFL1 / Fold change vs veh, UFL1 / RFU, COG3 / Fold change vs veh, COG3 / RFU, DIAPH2 / Fold change vs veh, DIAPH2 / RFU, SKA2 / Fold change vs veh, SKA2 / RFU, AFF3 / Fold change vs veh, AFF3 / RFU, LMF1 / Fold change vs veh, LMF1 / RFU, IPO11 / Fold change vs veh, IPO11 / RFU, DFFB / Fold change vs veh, DFFB / RFU, FOXP1 / Fold change vs veh, FOXP1 / RFU, CARD8 / Fold change vs veh, CARD8 / RFU, STRN3 / Fold change vs veh, STRN3 / RFU, ADK / Fold change vs veh, ADK / RFU, RASSF2 / Fold change vs veh, RASSF2 / RFU, WIPF1 / Fold change vs veh, WIPF1 / RFU, LARP1B / Fold change vs veh, LARP1B / RFU, RASA1 / Fold change vs veh, RASA1 / RFU, RB1 / Fold change vs veh, RB1 / RFU, PPFIA1 / Fold change vs veh, PPFIA1 / RFU, MAT2A / Fold change vs veh, MAT2A / RFU, CCT5 / Fold change vs veh, CCT5 / RFU, WDR92 / Fold change vs veh, WDR92 / RFU, CUX1 / Fold change vs veh, CUX1 / RFU, TTC7A / Fold change vs veh, TTC7A / RFU, TMEM135 / Fold change vs veh, TMEM135 / RFU, DEPTOR / Fold change vs veh, DEPTOR / RFU, CPM / Fold change vs veh, CPM / RFU, DNAJB6 / Fold change vs veh, DNAJB6 / RFU, CACNA2D3 / Fold change vs veh, CACNA2D3 / RFU, DTX4 / Fold change vs veh, DTX4 / RFU, TFCP2 / Fold change vs veh, TFCP2 / RFU, GMCL1 /// GMCL1P1 / Fold change vs veh, GMCL1 /// GMCL1P1 / RFU, AEBP2 / Fold change vs veh, AEBP2 / RFU, SNHG1 /// SNORD22 /// SNORD25 /// SNORD26 /// SNORD27 /// SNORD28 /// SNORD29 /// SNORD31 / Fold change vs veh, SNHG1 /// SNORD22 /// SNORD25 /// SNORD26 /// SNORD27 /// SNORD28 /// SNORD29 /// SNORD31 / Fold change (Aza/veh), C12orf56 (ProbeSet 11735607_a_at) / Fold change (ACY-1035/veh), C12orf56 (ProbeSet 11735607_a_at) / Fold change (Aza/veh), FGFR1OP (ProbeSet 11751329_s_at) / Fold change (ACY-1035/veh), FGFR1OP (ProbeSet 11751329_s_at) / Fold change (Aza/veh), VPS36 (ProbeSet 11739960_a_at) / Fold change (ACY-1035/veh), VPS36 (ProbeSet 11739960_a_at) / RFU SYPL1 (11715823_x_at) / Fold change /veh SYPL1 (11715823_x_at) / RFU IGFBP7 (11715501_s_at) / Fold change /veh IGFBP7 (11715501_s_at) / RFU REEP3 (11722064_at) / Fold change /veh REEP3 (11722064_at) / RFU IGLL1 (11728026_x_at) / Fold change /veh IGLL1 (11728026_x_at): dose or concentration left out as unconfirmed
# Conditions: ProbeSet 11732370_a_at; LIST D
compound,measurement,value
Nc1ncn([C@@H]2O[C@H](CO)[C@@H](O)[C@H]2O)c(=O)n1 [azacitidine],"RFU, CUX1",199.77 RFU
